Assay results as given in BindingDB's records for doi:10.1016/j.ejmech.2019.01.017 (Qilu University of Technology (Shandong Academy of Sciences), 2019).
pIC50: −log10 of the molar value.

Molecular target: RAC-beta serine/threonine-protein kinase (Homo sapiens, UniProt P31751)
Assay: Inhibition of PKBbeta (unknown origin)

Chain of RAC-beta serine/threonine-protein kinase (P31751 whole entry): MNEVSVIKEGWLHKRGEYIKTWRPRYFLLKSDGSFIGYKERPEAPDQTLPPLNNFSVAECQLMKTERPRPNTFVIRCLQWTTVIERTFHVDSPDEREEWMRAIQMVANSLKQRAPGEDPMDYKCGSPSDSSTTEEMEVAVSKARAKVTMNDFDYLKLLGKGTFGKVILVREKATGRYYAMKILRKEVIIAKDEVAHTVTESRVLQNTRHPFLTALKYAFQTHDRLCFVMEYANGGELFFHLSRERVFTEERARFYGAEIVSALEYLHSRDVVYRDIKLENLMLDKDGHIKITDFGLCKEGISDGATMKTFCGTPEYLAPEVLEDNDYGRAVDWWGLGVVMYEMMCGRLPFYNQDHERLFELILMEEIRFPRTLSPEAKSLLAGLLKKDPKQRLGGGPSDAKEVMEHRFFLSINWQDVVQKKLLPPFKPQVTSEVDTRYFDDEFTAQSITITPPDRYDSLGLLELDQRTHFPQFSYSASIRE

pIC50: 5.79
SMILES: Cc1ccc2[nH]c(=O)c(C(=O)/C=C/c3nc4ccccc4[nH]3)c(-c3ccccc3)c2c1
